Reference: patent US9096499B2, “Compounds for treatment of cell proliferative diseases” (Board of Regents, The University of Texas System, priority 2003, dated 2015)
Entries after “also recorded” stand apart in the source; their conditions may differ.

How the values were obtained:
Assay type in all cases: cell-based
MM-1 MM cells = test: MTT cell growth and survival assay, MM-1 MM cells; settings: for IC50 / Growth and survival of MM1 cells (in words): 72 hours; for IC50: MTT assay, read-out: IC50 (μM) MM1; for Growth and survival of MM1 cells (in words): MTT, FIG. 2A/3A
Description: (§1) To determine the effect of AG and WP compounds on MM cell growth/survival, MM cells were incubated with the indicated concentration of AG or WP for 72 hours before cell growth and survival were estimated by MTT assay.
(§2) To determine the effect of AG and WP compounds on MM cell growth/survival MM cells were incubated with the indicated concentration of AG or WP for 72 hours before cell growth and survival were estimated by MTT assay.

Stat3 [1] = test: IL-6 mediated Stat3 activation immunoblot in LP cells; settings: 3-25 μM
Description: (§3) Further studies were conducted to determine the dose and time dependent effects of these new compounds on IL-6 mediated Stat3 activation, c-myc protein expression and anti-proliferative of LP and other cell types.

c-myc [2] = test: c-myc protein expression by immunoblot in MM cells; parameters: key to C-Myc: (inhibition = ↓); (no effect) = —; settings: for C-Myc: c-myc downregulation, immunoblot
Description: (§4) To determine the effect of compounds on both Stat3 activation and c-myc protein expression MM-1, OCI-My5 and U266 cells were incubated with 25 μM of AG1801, AG490, WP1038, WP1039, WP1051, or WP1052 for 2 hours before cells were stimulated with 2 ng/ml IL-6 for 10 min. Cell lysates were prepared and immunoblotted for p-Stat3, Stat3, c-myc and actin (as a control).
To determine the temporal effects and mechanism of action of AG490 and AG1801 action on c-myc expression in MM cells, MM-1 cells were incubated with 0, 25, or 50 μM of AG490 or AG1801 and harvested at 30, 60, or 120 min. Lysates were immunoblotted for c-myc or actin as a protein loading control. […] Semi-quantitative PCR was used to measure changes in c-myc mRNA extracted from cells treated for 30 min with AG1801 at 25 μM. GAPDH PCR was used as a control.
These compounds were evaluated for their signal inhibitory and anti-proliferative/apoptotic properties on multiple myeloma, lymphoma and chronic myelogenous leukemia cell lines. WP1015, WP1034, AG1801, and AG490 were tested across a range of concentrations (6,12, and 25 μM) for their ability to inhibit c-myc expression using immunoblots.
These immunoblots tested a range of concentrations (1.56-25 μM for WP compounds) and used β-actin as a control.

Stat3 [3] = test: IL-6 mediated Stat3 activation (p-Stat3 immunoblot) in MM cells; parameters: key to P-Stat 3: (inhibition = ↓); (no effect) = —; settings: for P-Stat 3: Stat3 inhibition, immunoblot
Description: To examine the effect of newly synthesized AG and WP compounds on cytokine-mediated Stat activation, multiple myeloma (MM-1) cells were pretreated with AG490 or AG1801 at 2.5, 12, and 25 μM concentrations (for 2 hr) before stimulating cells with IL-6 or IFN-α for 10 min. Stat3 and Stat1 expression and activation were examined by immunoblotting.
as §4, with “control). Both Stat3 activation and c-myc expression were effected by WP and AG compounds.” for “control).”

c-myc [4] = test: c-myc protein immunoblot in LP non-Hodgkin lymphoma cells; settings: LP cells, 3-25 μM
Description: Additional cell types were examined for response to treatment with WP1066.
as §3

U266 MM cells = test: MTT cell growth and survival assay, U266 MM cells; settings: 72 hours; for Growth and survival of U266 cells (in words): MTT, FIG. 2C/3C; for IC50: Homo sapiens, U-266, MTT assay
Description: as §1, §2

OCI MM cells = test: MTT cell growth and survival assay, OCI MM cells; settings: 72 hours; for IC50: MTT assay; for Growth and survival of OCI cells (in words): MTT, FIG. 2B/3B
Description: as §1, §2

c-myc/Stat3 = test: Stat3/c-myc inhibitory activity in MM-1 cells (FIG. 7)
Excerpt: An improved inhibition of c-myc/Stat3 by WP1066, WP1130, and WP1129 was observed (FIG. 7). The compounds were compared with regard to their Stat3/c-myc inhibitory activity in MM-1 cells.

| Structure (SMILES) | IC50 (MM-1 MM cells) | C-Myc (c-myc [2]) | IC50 (U266 MM cells) | IC50 (OCI MM cells) | further results |
| --- | --- | --- | --- | --- | --- |
| N#C/C(=C\c1cc(O)ccc1[N+](=O)[O-])C(=O)NCc1ccccc1 [WP 1073] | > 2.5 µM |  |  |  |  |
| N#C/C(=C\c1cccc(Br)n1)C(=O)NCc1ccccc1 [WP 1015] | 1.9 µM | ↓ |  |  | IL-6 mediated Stat3 activation (Stat3 [1]): blocked IL-6 mediated Stat3 activation; Inhibition of c-myc protein expression (c-myc [2]; 6, 12, 25 μM, AG490 up to 50 μM): more active than previously synthesized WP compounds; Inhibition of Stat3 phosphorylation (Stat3 [3]; MM-1 cells): more effective in inhibiting Stat3 phosphorylation; c-myc expression (c-myc [4]): reduced c-myc expression |
| N#C/C(=C\c1ccc(Cl)c([N+](=O)[O-])c1)C(=O)NCc1ccccc1 [WP 1077] | 2.5 µM |  |  |  |  |
| C[C@@H](NC(=O)/C(C#N)=C/c1ccc([N+](=O)[O-])cc1)c1ccccc1 [WP 1034] | 3.5 µM | ↓ | 4.5 µM | 6.3 µM | Growth and survival of U266 cells (in words) (U266 MM cells): effective in reducing the growth and survival; also recorded: demonstrated increased potency compared to AG490; Growth and survival of MM1 cells (in words) (MM-1 MM cells): effective in reducing the growth and survival; also recorded: demonstrated increased potency compared to AG490; Growth and survival of OCI cells (in words) (OCI MM cells): effective in reducing the growth and survival; also recorded: demonstrated increased potency compared to AG490 |
| C[C@@H]1C[C@@H]([C@H](O)CC2CC(=O)NC(=O)C2)C(=O)[C@@H](C)C1 [CHX, cycloheximide, reference compound] |  |  |  |  | Suppression of c-myc protein expression (c-myc [2]; 1.56-25 μM WP compounds, CHX 0-30 min at much higher concentrations): did not result in the rapid reduction of c-myc |
| N#C/C(=C\c1cccnc1)C(=O)NCc1ccccc1 [WP 1075] | > 2.5 µM |  |  |  |  |
| CN(C)c1ccc(/C=C(\C#N)C(=O)NCc2ccccc2)c([N+](=O)[O-])c1 [WP 1076] | > 2.5 µM |  |  |  |  |
| CCC[C@H](NC(=O)/C(C#N)=C/c1cccc(Br)n1)c1ccccc1 [WP1130] |  |  |  |  | Inhibition of c-myc/Stat3 (c-myc/Stat3): Strong inhibition; IC50 against MM-1 myeloma relative to WP1066 (MM-1 MM cells; FIG. 6): even better than compound WP1066 |
| C[C@H](NC(=O)/C(C#N)=C/c1ccccn1)c1ccccc1 [WP 1065] | 3 µM |  |  |  |  |
| C[C@@H](NC(=O)/C(C#N)=C/c1ccc([N+](=O)[O-])c(O)c1)c1ccccc1 [WP 1038] | 6.2 µM | ↓ | 11.8 µM | > 12.5 µM | P-Stat 3 (Stat3 [3]): ↓ |
| N#C/C(=C\c1cccc([N+](=O)[O-])c1)C(=O)NCc1ccccc1 [WP 1074] | > 2.5 µM |  |  |  |  |
| C[C@H](NC(=O)/C(C#N)=C/c1ccc([N+](=O)[O-])cc1)c1ccccc1 [WP 1050] | 2.1 µM | ↓ | 5 µM | > 12.5 µM | Growth and survival of U266 cells (in words) (U266 MM cells): demonstrated increased potency compared to AG490; Growth and survival of MM1 cells (in words) (MM-1 MM cells): demonstrated increased potency compared to AG490; Growth and survival of OCI cells (in words) (OCI MM cells): demonstrated increased potency compared to AG490 |
| C[C@H](NC(=O)/C(C#N)=C/c1ccc([N+](=O)[O-])c(O)c1)c1ccccc1 [WP 1051] | 5.5 µM | ↓ | 11.1 µM | > 12.5 µM | P-Stat 3 (Stat3 [3]): ↓ |
